Measurements taken from ChEMBL document CHEMBL1149353, “Exploring alternative Zn-binding groups in the design of HDAC inhibitors: squaric acid, N-hydroxyurea, and oxazoline analogues of SAHA” (Bioorg Med Chem Lett, 2006).
Activity calls are given as the source filed them. The calls are words filed in the database; no cut-off is given here.

biological target: Histone deacetylase (Homo sapiens) (UniProt Q13547+O15379+Q9UBN7+Q92769+Q9UQL6+Q8WUI4+Q9BY41+Q96DB2+P56524+Q9UKV0+Q969S8); experiment: Inhibition of HDAC at <1 uM; type: protein assay

Activity, inactive:
CSc1c(NCCCCCCC(=O)Nc2ccccc2)c(=O)c1=O
O=C(CCCC/N=c1/c(S)c(O)c1=O)Nc1ccccc1
CSc1c(NCCCCC(=O)Nc2ccccc2)c(=O)c1=O
CSc1c(NCCCCCC(=O)Nc2ccccc2)c(=O)c1=O
O=C(CCCCCC/N=c1/c(S)c(O)c1=O)Nc1ccccc1
O=C(CCCCNc1c(O)c(=O)c1=O)Nc1ccccc1
O=C(CCCCC/N=c1/c(S)c(O)c1=O)Nc1ccccc1
O=C(CCCCCCNc1c(O)c(=O)c1=O)Nc1ccccc1
COc1ccc(COC(CCCCCNC(=O)NO)C(=O)Nc2ccccc2)cc1 (stereo not drawn)
O=C(CCCCCCC1=N[C@@H](COCc2ccccc2)CO1)Nc1ccccc1
O=C(CCCCCNc1c(O)c(=O)c1=O)Nc1ccccc1
CN(O)c1c(SCCCCC(=O)Nc2ccccc2)c(=O)c1=O
O=C(CCCCCCC1=N[C@@H](CO)CO1)Nc1ccccc1
